Key:
TBI = conditions: University of Washington trial initiated in 1999, preliminary data; cited from earlier work
stroke = conditions: intravenous, up to 12 hours following stroke onset, 2589 patients (Muir et al., 2004); cited from earlier work
brain injury = assay: Loss of cognitive functions (ability to learn a new spatial task) following brain injury; type: in vivo, animals; conditions: single agent alone
Excerpt: The discovery of a synergistic effect between PEG, a biomembrane sealing agent, and magnesium is highly significant as it can lead to the development of therapeutic formulations with improved efficacy for the treatment of neuronal trauma, inflammatory and painful conditions.

pain = conditions: Crosby et al., 2000; cited from earlier work

SMILES | outcome of magnesium sulfate therapy in TBI patients (TBI) | clinical improvement after stroke (stroke) | effect on the loss of cognitive functions following brain injury (brain injury) | duration of analgesic effects (pain) [h]
O=S(=O)([O-])[O-].[Mg+2] [magnesium sulfate] | negative | no significant improvement | – | –
[Mg+2] [magnesium] | – | – | no effect | ≤ 4

From patent US20090263507A1, “BIOLOGICAL MARKERS AND RESPONSE TO TREATMENT FOR PAIN, INFLAMMATION, NEURONAL OR VASCULAR INJURY AND METHODS OF USE” (Warsaw Orthopedic, Inc., priority 2008, published 2009)
